Earlier results in patent US20060275294A1, “METHOD OF PREVENTION AND TREATMENT OF AGING, AGE-RELATED DISORDERS AND/OR AGE-RELATED MANIFESTATIONS INCLUDING ATHEROSCLEROSIS, PERIPHERAL VASCULAR DISEASE, CORONARY ARTERY DISEASE, OSTEOPOROSIS, ARTHRITIS, TYPE 2 DIABETES, DEMENTIA, ALZHEIMERS DISEASE AND CANCER” (priority 2002, published 2006).
Read-outs that look alike come from different tables or passages of the source.

Assays:
[1] = system: cultured human astrocytes; conditions: cited from earlier work
[2] = system: rats; conditions: synthetic diet for 21 days; cited from earlier work
[3] = system: rat primary astrocytes, microglia, and macrophages; conditions: cited from earlier work
[4] = system: IL-1 beta, IL-6, and TNF-alpha; conditions: cited from earlier work
[5] = system: three human pancreatic cancer cell types; conditions: cited from earlier work
[6] = system: JB6 cell; conditions: cited from earlier work
[7] = target: fAbeta(1-40) and fAbeta(1-42) (Homo sapiens, UniProt P05067); conditions: cited from earlier work; for fAbeta formation from Abeta(1-40) and Abeta(1-42): in vitro
[8] = system: IL-6; conditions: in vitro; cited from earlier work
[9] = system: STAT3 and ERK1/2; conditions: cited from earlier work
[10] = system: myeloma cell lines; conditions: cited from earlier work
[11] = system: Rat VSMC; conditions: 50 microM, IL-6 stimulated; cited from earlier work
[12] = system: STAT1 and STAT3; conditions: cited from earlier work
[13] = system: Wistar rats; conditions: cited from earlier work
[14] = system: aortic strips isolated from virgin and late pregnant Sprague-Dawley rats; conditions: cited from earlier work; for enhancement of Phe contraction: 1,000 pg/ml; for increase in active stress: 10^-5 M, endothelium-intact strips
[15] = in vivo, sc; cited from earlier work
[16] = system: Male Wistar rats; conditions: administered to every diet group; cited from earlier work
[17] = system: MM cells; conditions: cited from earlier work
[18] = system: rat vascular smooth muscle cells; conditions: cited from earlier work
[19] = system: human endothelial cells (EC); conditions: 100 ug/ml for DHA, EPA; 24 h supernatants, ELISA; cited from earlier work
[20] = system: Jurkat T cells; conditions: cited from earlier work
[21] = system: mice; conditions: mouse, in vivo; cited from earlier work
[22] = system: human prostate carcinoma PC-3 cell line; conditions: cited from earlier work
[23] = target: IKKbeta (Homo sapiens, UniProt O14920); conditions: cited from earlier work
[24] = system: Yorkshire swine; conditions: 20 mg/kg/day, 5 months, cited from earlier work
[25] = system: subjects with type 2 diabetes associated with osteopenia; conditions: 200 mg/day for 2 weeks every 3 months, 1 yr; cited from earlier work
[26] = system: rats with adjuvant arthritic chronic pain; conditions: cited from earlier work
[27] = system: Male Wistar rats; conditions: rats; cited from earlier work
[28] = system: human microvascular endothelial cells (EC); conditions: cited from earlier work
[29] = system: in-patients with advanced (stage III) Huntington's disease; conditions: 6 months; cited from earlier work
[30] = system: Primary adipocytes from pig subcutaneous adipose tissue; conditions: cited from earlier work

Sequence of fAbeta(1-40) and fAbeta(1-42) (P05067 672-711 limits assumed): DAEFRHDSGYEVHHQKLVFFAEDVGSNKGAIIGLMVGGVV
Sequence of IKKbeta (O14920 whole entry, species assumed): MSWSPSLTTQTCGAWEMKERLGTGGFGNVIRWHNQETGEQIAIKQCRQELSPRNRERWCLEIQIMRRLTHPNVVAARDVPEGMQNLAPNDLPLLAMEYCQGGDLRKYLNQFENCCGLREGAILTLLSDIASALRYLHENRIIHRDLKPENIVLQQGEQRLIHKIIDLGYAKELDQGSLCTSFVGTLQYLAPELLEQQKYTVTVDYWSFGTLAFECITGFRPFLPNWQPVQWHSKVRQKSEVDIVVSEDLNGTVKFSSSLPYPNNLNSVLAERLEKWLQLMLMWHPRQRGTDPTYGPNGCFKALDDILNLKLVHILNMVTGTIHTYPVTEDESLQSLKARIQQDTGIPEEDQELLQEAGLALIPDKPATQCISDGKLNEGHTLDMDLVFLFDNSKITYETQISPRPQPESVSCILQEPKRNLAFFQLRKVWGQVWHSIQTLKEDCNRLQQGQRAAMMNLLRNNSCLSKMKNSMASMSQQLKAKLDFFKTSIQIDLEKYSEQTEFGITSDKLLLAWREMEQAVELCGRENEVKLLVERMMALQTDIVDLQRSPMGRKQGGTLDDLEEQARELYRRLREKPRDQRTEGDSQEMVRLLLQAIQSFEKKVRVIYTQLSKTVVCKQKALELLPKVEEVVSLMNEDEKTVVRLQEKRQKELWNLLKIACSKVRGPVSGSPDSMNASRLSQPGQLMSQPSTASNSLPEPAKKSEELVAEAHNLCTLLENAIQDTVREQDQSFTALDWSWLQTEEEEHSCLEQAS

CCCC(=O)O[C@@H]1[C@@H](C)[C@@]2(O)[C@@H](C=C(CO)C[C@]3(O)C(=O)C(C)=C[C@@H]23)[C@@H]2C(C)(C)[C@]12OC(=O)CCC [PDBu, Phorbol 12, 13-dibutyrate]
increase of secretion of APPalpha over control [1]: 2-3 fold

vitamin E
endotoxin induced IL-6 concentration [2]: significantly lower

O=C([O-])Cc1ccccc1.[Na+] [sodium phenylacetate]
LPS-mediated activation of NF kappa B ([3]; astrocytes): Inhibition | LPS-induced expression of TNF-alpha, IL-1beta, and IL-6 ([3]; rat primary astrocytes, microglia, macrophages): inhibited | LPS and cytokine-mediated production of NO and expression of iNOS ([3]; rat primary astrocytes): inhibit

CO[C@H]1[C@@H](OC)C[C@H](C)[C@@H](OC)C2=CC(=O)C=C(NC(=O)/C(C)=C/C=C\[C@H](OC)[C@@H](OC(N)=O)/C(C)=C/[C@@H]1C)C2=O [herbimycin A]
LPS-induced increase in IL-1 beta, IL-6, and TNF-alpha mRNA levels ([4]; 1.7 microM): completely or more than 80% blocked | LPS activation of NF-kappa B [4]: reduced | LPS-induced IL-6 protein synthesis and IL-6 bioactivity [4]: reduced to baseline levels | IC50 ([5]; three cell lines, read-out: mean IC(50) proliferation): 1.71 µM

O=P(O)(O)O[C@H]1[C@H](OP(=O)(O)O)[C@@H](OP(=O)(O)O)[C@H](OP(=O)(O)O)[C@@H](OP(=O)(O)O)[C@H]1OP(=O)(O)O [InsP6, inositol hexaphosphate]
cell transformation [6]: inhibited

O=C(OC[C@H]1O[C@@H](OC(=O)c2cc(O)c(O)c(OC(=O)c3cc(O)c(O)c(O)c3)c2)[C@H](OC(=O)c2cc(O)c(O)c(OC(=O)c3cc(O)c(O)c(O)c3)c2)[C@@H](OC(=O)c2cc(O)c(O)c(OC(=O)c3cc(O)c(O)c(O)c3)c2)[C@@H]1OC(=O)c1cc(O)c(O)c(OC(=O)c2cc(O)c(O)c(O)c2)c1)c1cc(O)c(O)c(OC(=O)c2cc(O)c(O)c(O)c2)c1 [TA, tannic acid]
fAbeta formation from Abeta(1-40) and Abeta(1-42) [7]: dose-dependently inhibited | EC50 ([7]; pH 7.5, 37 degrees C, read-out: effective concentrations (EC50) for formation, extension and destabilization of fAbetas): < 0.1 µM

C[C@]12CC[C@@H]3c4ccc(O)cc4CC[C@H]3[C@@H]1CC[C@@H]2O [estradiol, 17beta-estradiol]
IL-6 protein and mRNA production [8]: inhibits

Cn1cncc1[C@@](N)(c1ccc(Cl)cc1)c1ccc2c(c1)c(-c1cccc(Cl)c1)cc(=O)n2C [R115777]
phosphorylation of STAT3 and ERK1/2 induced by IL-6 ([9]; 10 and 5 microM): partially blocked | phosphorylation of STAT3 and ERK1/2 induced by IL-6 ([9]; 15 microM): totally blocked | growth of three myeloma cell lines [10]: significant and dose-dependent growth inhibition | apoptosis ([10]; myeloma cells): significant and time-dependent apoptosis

N#C/C(=C/c1ccc(O)c(O)c1)C(=O)NCc1ccccc1 [AG490]
DNA synthesis [11]: near complete inhibition | STAT 3 activation and MCP-1 production [11]: partially inhibited | CuLDL-induced enhancement of STAT1 and STAT3 Tyr-phosphorylation and DNA-binding activity [12]: markedly prevented

C[C@@H]1O[C@@H](OC[C@H]2O[C@@H](Oc3c(-c4ccc(O)c(O)c4)oc4cc(O)cc(O)c4c3=O)[C@H](O)[C@@H](O)[C@@H]2O)[C@H](O)[C@H](O)[C@H]1O [rutin, quercetin-3-O-glucose rhamnose]
mean plasma concentration of active metabolites (quercetin and isorhamnetin) ([13]; OVX+R rats, HPLC): 9.46 ± 1 µM | uterotrophic activity ([13]; rat, in vivo): devoid of any uterotrophic activity

IL-6: interleukin-6 cytokine
enhancement of Phe contraction ([14]; pregnant rats): 10.6±0.7 ×104 N/m2 | enhancement of Phe contraction ([14]; virgin rats): 7.5±0.4 ×104 N/m2 | adverse effects of subcutaneous administration [15]: cardiac arrhythmias, hepatotoxicity

COc1ccc2c(c1)c(CC(=O)O)c(C)n2C(=O)c1ccc(Cl)cc1 [Indomethacin]
inflammatory process in adjuvant arthritis [16]: strong inhibitory effect

COc1cc(/C=C/C(=O)CC(=O)/C=C/c2ccc(O)c(OC)c2)ccc1O [curcumin, diferuloylmethane]
adhesion to bone marrow stromal cells, cytokine secretion, viability of cells ([17]; ex vivo treatment of patient MM cells): decrease | expression of NF-kappaB-regulated gene products incl. interleukin-6 ([17]; human MM cells): down-regulated

CCOc1nc2cccc(C(=O)O)c2n1Cc1ccc(-c2ccccc2-c2nnn[nH]2)cc1 [CV11974]
expression of IL-6 mRNA induced by Ang II [18]: completely blocked

CCCCC/C=C\C/C=C\C/C=C\C/C=C\CCCC(=O)O [Arachidonic acid]
production of IL-6 by unstimulated or stimulated EC [19]: ineffective

Oc1cc(O)c2c(c1)OC(c1ccc(O)c(O)c1)C(O)C2 (single isomer, unassigned; (+)) [CT, (+)-catechin]
PMA-triggered increase in cell oxidants ([20]; 1.7-17.2 microM, 24 h preincubation): prevented | PMA-induced NF-kappaB binding activity and transactivation of IL-2 ([20]; pretreatment): decreased

C=C(CC[C@]12O[C@H](C(=O)O)[C@@](O)(C(=O)O)[C@](C(=O)O)(O1)[C@H](OC(=O)/C=C/[C@@H](C)C[C@@H](C)CC)[C@H]2O)[C@@H](OC(C)=O)[C@H](C)Cc1ccccc1 [squalestatin]
anti-inflammatory effect [21]: did not have any anti-inflammatory effect

CNC[C@H](O)c1cccc(O)c1 [phenylephrine]
increase in active stress ([14]; pregnant rats): 4.2±0.3 ×104 N/m2 | increase in active stress ([14]; virgin rats): 5.1±0.3 ×104 N/m2

Cc1ccc(NC(=O)c2ccc(CN3CCN(C)CC3)cc2)cc1Nc1nccc(-c2cccnc2)n1 [Gleevec]
inhibition of proliferation [5]: ineffective

C=C(C)[C@@H]1CC=C(C(=O)O)CC1 [perillic acid]
IL-6- and OM-mediated effects (growth, resistance to etoposide and cisplatin) [22]: inhibited

Oc1ccc(C=Cc2cc(O)cc(O)c2)cc1 [resveratrol]
activation of IKKbeta [23]: inhibit or suppress | cell transformation [6]: inhibited cell transformation

Lavendustin
inhibition of proliferation [5]: ineffective

CC(O)(P(=O)(O)O)P(=O)(O)O [EHDP, ethane-1-hydroxy-1,1-diphosphonate]
extent of lesions, ratio of intima to media ([24]; vs HL diet only): significantly less | lesion calcium [24]: significantly less | ratio of lipid-rich necrotic debris area to area of media [24]: significantly smaller

CN(C)CCCn1cc(C2=C(c3c[nH]c4ccccc34)C(=O)NC2=O)c2ccccc21 [GF109203X]
PDBu-increased secretion of APPalpha [1]: blocked

S=C=NCCc1ccccc1 [PEITC, phenethyl isothiocyanate]
cell transformation [6]: inhibited cell transformation

CC(O)(P(=O)(O)O)P(=O)(O)O [etidronate]
change in intima-media thickness (mean±SE) [25]: −0.038±0.011 mm

CC(C)Oc1ccc2c(=O)c(-c3ccccc3)coc2c1 [ipriflavone, 7-isopropoxyisoflavone]
analgesic effects ([26]; 100 mg/kg/day oral, 2 weeks after start): Analgesic effects were observed | synovitis, periosteal new bone formation and bone destruction ([26]; 3 weeks, females): improved

CC(Cc1ccc(O)c(O)c1)C(C)Cc1ccc(O)c(O)c1 (stereo not shown) [NDGA, Nordihydroguaiaretic acid]
fAbeta formation from Abeta(1-40) and Abeta(1-42) [7]: inhibit

Oc1cc(O)c2c(c1)O[C@H](c1cc(O)c(O)c(O)c1)[C@H](O)C2 [Epigallocatechin]
myocardial ischemia reperfusion injury [27]: attenuates

O=P([O-])(O)C(NC1CCCCCC1)P(=O)([O-])O.[Na+].[Na+] [incadronate disodium]
activation of NF-kappaB and AP-1 and up-regulation of VEGF mRNA ([28]; AGE-exposed EC): significantly prevented | AGE-induced increase in DNA synthesis and tube formation [28]: completely inhibit

CC/C=C\C/C=C\C/C=C\C/C=C\C/C=C\CCCC(=O)OCC [ethyl-EPA, ethyl-ester of eicosapentaenoic acid]
orofacial component of the Unified Huntington's Disease Rating Scale [29]: improved

B1: adiponectin: adiponectin (protein, UniProt Q15848 19-244, looked up)
Adiponectin: ETTTQGPGVLLPLPKGACTGWMAGIPGHPGHNGAPGRDGRDGTPGEKGEKGDPGLIGPKGDIGETGVPGAEGPRGFPGIQGRKGEPGEGAYVYRSAFSVGLETYVTIPNMPIRFTKIFYNQQNHYDGSTGKFHCNIPGLYYFAYHITVYMKDVKVSLFKKDKAMLFTYDQYQENNVDQASGSVLLHLEVGDQVWLQVYGEGERNGLYADNDNDSTFTGFLLYHDTN
NF-kappaB activation and induction of IL-6 expression by LPS ([30]; 30 microg/ml, LPS 10 microg/ml): suppressed | PPARgamma2 mRNA [30]: upregulation
